Data reported in ChEMBL document CHEMBL4014287, “Jesridonin in combination with paclitaxel demonstrates synergistic anti-tumor activity in human esophageal carcinoma cells” (Bioorg Med Chem Lett, 2017).
Active and inactive are the calls of the source. The rule behind the calls is not given here.

Assays:
Mus musculus [1] = test: Toxicity in nude mouse xenografted with human EC109 cells assessed as effect on spleen at 10 mg/kg in presence of paclitaxel measured after 21 days by histopathological analysis; assay type: organism-based; conditions: in vivo, 504 h
ECa-109 cell line [2] = test: Antitumor activity against human EC109 cells xenografted in nude mouse assessed as increase in apoptotic cells at 10 mg/kg in presence of paclitaxel measured after 21 days by TUNEL assay; assay type: functional, organism-based
Mus musculus [3] = test: Hepatotoxicity in nude mouse xenografted with human EC109 cells assessed as change in serum albumin level at 10 mg/kg in presence of paclitaxel measured after 21 days; assay type: toxicity, organism-based; conditions: in vivo, 504 h
ECa-109 cell line [4] = test: Induction of apoptosis in human EC109 cells assessed as increase in Bax level at 15 uM in presence of 5 nM paclitaxel by Western blot method; assay type: functional, cell-based
ECa-109 cell line [5] = test: Induction of apoptosis in human EC109 cells assessed as viable cells at 15 uM after 24 hrs in presence of paclitaxel by Annexin V-FITC/propidium iodide staining based flow cytometry (reference value: 96.1%); assay type: functional; conditions: ECa-109, 24 h, read-out: Activity
Mus musculus [6] = test: Cardiotoxicity in nude mouse xenografted with human EC109 cells at 10 mg/kg in presence of paclitaxel measured after 21 days by histopathological analysis; assay type: toxicity, organism-based; conditions: in vivo, 504 h
ECa-109 cell line [7] = test: Antitumor activity against human EC109 cells xenografted in nude mouse assessed as decrease in tumor weight at 10 mg/kg in presence of 5 mg/kg paclitaxel measured after 21 days; assay type: functional, organism-based
ECa-109 cell line [8] = test: Induction of apoptosis in human EC109 cells assessed as increase in Bak level at 15 uM in presence of 5 nM paclitaxel by Western blot method; assay type: functional, cell-based
Mus musculus [9] = test: Toxicity in nude mouse xenografted with human EC109 cells assessed as skin ulceration at 10 mg/kg measured after 21 days; assay type: organism-based; conditions: in vivo, 504 h
Mus musculus [10] = test: Hepatotoxicity in nude mouse xenografted with human EC109 cells assessed as change in serum total protein level at 10 mg/kg in presence of paclitaxel measured after 21 days; assay type: toxicity, organism-based; conditions: in vivo, 504 h
ECa-109 cell line [11] = test: Induction of apoptosis in human EC109 cells assessed as necrotic cells at 15 uM after 24 hrs in presence of paclitaxel by Annexin V-FITC/propidium iodide staining based flow cytometry (reference value: 1.6 %); assay type: functional
Mus musculus [12] = test: Toxicity in nude mouse xenografted with human EC109 cells assessed as skin ulceration at 10 mg/kg in presence of paclitaxel measured after 21 days; assay type: organism-based; conditions: in vivo, 504 h
ECa-109 cell line [13] = test: Induction of apoptosis in human EC109 cells assessed as early apoptotic cells at 15 uM after 24 hrs in presence of paclitaxel by Annexin V-FITC/propidium iodide staining based flow cytometry (reference value: 1.3%); assay type: functional
ECa-109 cell line [14] = test: Cytotoxicity against human EC109 cells assessed as combination index at 15 uM in presence of 5 nM paclitaxel; assay type: functional
ECa-109 cell line [15] = test: Cytotoxicity against human EC109 cells assessed as combination index at 5 uM in presence of 2.5 nM paclitaxel; assay type: functional
ECa-109 cell line [16] = test: Induction of apoptosis in human EC109 cells assessed as decrease in pro-caspase 9 expression at 15 uM in presence of 5 nM paclitaxel by Western blot method; assay type: functional, cell-based
ECa-109 cell line [17] = test: Induction of apoptosis in human EC109 cells assessed as early apoptotic cells at 15 uM after 24 hrs by Annexin V-FITC/propidium iodide staining based flow cytometry (reference value: 1.3%); assay type: functional
ECa-109 cell line [18] = test: Induction of apoptosis in human EC109 cells assessed as increase in PUMA level at 15 uM in presence of 5 nM paclitaxel by Western blot method; assay type: functional, cell-based
ECa-109 cell line [19] = test: Induction of apoptosis in human EC109 cells assessed as nuclear shrinkage at 15 uM after 24 hrs by Hochest 33258 staining based fluorescent microscopic analysis; assay type: functional, cell-based
ECa-109 cell line [20] = test: Induction of apoptosis in human EC109 cells assessed as necrotic cells at 15 uM after 24 hrs by Annexin V-FITC/propidium iodide staining based flow cytometry (reference value: 1.6 %); assay type: functional
Mus musculus [21] = test: Hepatotoxicity in nude mouse xenografted with human EC109 cells assessed as change in serum GGT level at 10 mg/kg in presence of paclitaxel measured after 21 days; assay type: toxicity, organism-based; conditions: in vivo, 504 h
ECa-109 cell line [22] = test: Induction of apoptosis in human EC109 cells assessed as decrease in Bcl-2 level at 15 uM in presence of 5 nM paclitaxel by Western blot method; assay type: functional, cell-based
Mus musculus [23] = test: Toxicity in nude mouse xenografted with human EC109 cells assessed as body weight loss at 10 mg/kg measured after 21 days; assay type: organism-based; conditions: in vivo, 504 h
ECa-109 cell line [24] = test: Cytotoxicity against human EC109 cells assessed as combination index at 15 uM in presence of 2.5 nM paclitaxel; assay type: functional
ECa-109 cell line [25] = test: Antitumor activity against human EC109 cells xenografted in nude mouse assessed as induction of necrosis at 10 mg/kg measured after 21 days by H and E staining based assay; assay type: functional, organism-based
ECa-109 cell line [26] = test: Induction of apoptosis in human EC109 cells assessed as viable cells at 15 uM after 24 hrs by Annexin V-FITC/propidium iodide staining based flow cytometry (reference value: 96.1%); assay type: functional; conditions: ECa-109, 24 h, read-out: Activity
ECa-109 cell line [27] = test: Induction of apoptosis in human EC109 cells assessed as late apoptotic cells at 15 uM after 24 hrs in presence of paclitaxel by Annexin V-FITC/propidium iodide staining based flow cytometry (reference value: 1%); assay type: functional
ECa-109 cell line [28] = test: Cytotoxicity against human EC109 cells assessed as reduction in cell viability after 24 hrs by MTT assay; assay type: functional, cell-based
ECa-109 cell line [29] = test: Induction of apoptosis in human EC109 cells assessed as decrease in pro-caspase 3 expression at 15 uM in presence of 5 nM paclitaxel by Western blot method; assay type: functional, cell-based

C=C1C(=O)[C@@]23[C@@H]4OC(c5ccc(Cl)cc5)O[C@@]25OC[C@@]2([C@H]([C@@H]5O)C(C)(C)CC[C@@H]2O)[C@@H]3CC[C@@H]14 (some centres undefined)
Activity (Mus musculus [1]): Non-Toxic
Activity (ECa-109 cell line [2]): Active
Activity (Mus musculus [3]): Non-Toxic
Activity (ECa-109 cell line [4]): Active
viability at 15 µM (ECa-109 cell line [5]): 52.7%
Activity (Mus musculus [6]): Non-Toxic
Activity (ECa-109 cell line [7]): Active
Activity (ECa-109 cell line [8]): Active
Activity (Mus musculus [9]): Non-Toxic
Activity (Mus musculus [10]): Non-Toxic
Activity (ECa-109 cell line [11]): 1.5%
Activity (Mus musculus [12]): Non-Toxic
Activity (ECa-109 cell line [13]): 36.1%
CI (ECa-109 cell line [14]): 0.37
CI (ECa-109 cell line [15]): 1.79
Activity (ECa-109 cell line [16]): Active
Activity (ECa-109 cell line [17]): 20.2%
Activity (ECa-109 cell line [18]): Active
Activity (ECa-109 cell line [19]): Active
Activity (ECa-109 cell line [20]): 1.3%
Activity (Mus musculus [21]): Non-Toxic
Activity (ECa-109 cell line [22]): Active
Activity (Mus musculus [23]): Non-Toxic
CI (ECa-109 cell line [24]): 0.6
Activity (ECa-109 cell line [25]): Active
viability at 15 µM (ECa-109 cell line [26]): 73.1%
Activity (ECa-109 cell line [27]): 9.7%
Activity (ECa-109 cell line [28]): Dose-dependent effect
Activity (ECa-109 cell line [29]): Active
